Test results published in ChEMBL document CHEMBL5550201, “Discovery of a Highly Potent, Selective and Efficacious USP7 Degrader for the Treatment of Acute Lymphoblastic Leukemia” (J Med Chem, 2024).
Calls of active or inactive are those of the source. The rule behind the calls is not given here.

Key:
[1] = target: T1, von Hippel-Lindau disease tumor suppressor/Ubiquitin carboxyl-terminal hydrolase 7 (Homo sapiens, UniProt Q93009+P40337); assay: PROTACT activity at USP7/VHL in human RS4;11 cells assessed as protein degradation at 10 nM measured after 24 hrs by Western blot analysis relative to control; assay type: cell-based
T1 sequence (P40337 whole entry, looked up): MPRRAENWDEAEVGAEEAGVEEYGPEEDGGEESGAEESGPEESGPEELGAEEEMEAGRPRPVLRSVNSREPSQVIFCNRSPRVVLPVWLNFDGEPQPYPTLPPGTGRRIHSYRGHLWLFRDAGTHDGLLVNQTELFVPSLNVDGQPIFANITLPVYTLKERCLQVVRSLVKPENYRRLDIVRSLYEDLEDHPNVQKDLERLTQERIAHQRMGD
T1 sequence (Q93009 whole entry, looked up): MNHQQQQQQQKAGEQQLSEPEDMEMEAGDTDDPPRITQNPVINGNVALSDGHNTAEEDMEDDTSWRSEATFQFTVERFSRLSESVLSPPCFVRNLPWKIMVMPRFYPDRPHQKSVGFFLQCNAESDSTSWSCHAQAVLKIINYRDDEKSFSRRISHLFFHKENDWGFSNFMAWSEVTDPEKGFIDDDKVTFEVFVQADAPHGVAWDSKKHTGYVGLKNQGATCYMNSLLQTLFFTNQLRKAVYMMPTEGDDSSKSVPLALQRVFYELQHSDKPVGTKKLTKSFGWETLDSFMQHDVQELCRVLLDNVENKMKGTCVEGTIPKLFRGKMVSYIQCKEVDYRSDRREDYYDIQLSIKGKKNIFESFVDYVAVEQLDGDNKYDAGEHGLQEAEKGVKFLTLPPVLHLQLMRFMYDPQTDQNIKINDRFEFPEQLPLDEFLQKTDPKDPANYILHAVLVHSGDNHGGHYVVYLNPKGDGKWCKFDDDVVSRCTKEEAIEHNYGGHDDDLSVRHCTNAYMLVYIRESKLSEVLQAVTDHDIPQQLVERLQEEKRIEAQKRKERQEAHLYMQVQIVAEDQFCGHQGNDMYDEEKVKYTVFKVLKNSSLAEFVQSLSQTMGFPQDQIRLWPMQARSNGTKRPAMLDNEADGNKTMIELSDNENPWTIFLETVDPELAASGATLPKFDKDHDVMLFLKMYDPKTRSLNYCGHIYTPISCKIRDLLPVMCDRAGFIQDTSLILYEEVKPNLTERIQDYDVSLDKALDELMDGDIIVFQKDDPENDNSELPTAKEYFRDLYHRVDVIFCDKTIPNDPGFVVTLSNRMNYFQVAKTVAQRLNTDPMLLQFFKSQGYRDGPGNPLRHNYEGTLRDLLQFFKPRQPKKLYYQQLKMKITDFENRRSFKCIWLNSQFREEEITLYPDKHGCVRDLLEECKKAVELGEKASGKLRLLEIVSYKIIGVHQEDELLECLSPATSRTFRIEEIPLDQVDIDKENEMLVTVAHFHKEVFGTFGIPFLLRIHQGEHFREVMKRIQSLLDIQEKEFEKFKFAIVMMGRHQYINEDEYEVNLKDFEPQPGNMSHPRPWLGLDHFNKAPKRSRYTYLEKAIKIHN

[2] = target: T1, von Hippel-Lindau disease tumor suppressor/Ubiquitin carboxyl-terminal hydrolase 7; assay: PROTACT activity at USP7/VHL in human RS4;11 cells assessed as protein degradation at 100 nM measured after 24 hrs by Western blot analysis relative to control; assay type: cell-based
[3] = target: von Hippel-Lindau disease tumor suppressor/USP7; assay: PROTACT activity at USP7 (unknown origin) /E3 ligase (unknown origin) assessed as protein degradation
[4] = target: T1, von Hippel-Lindau disease tumor suppressor/Ubiquitin carboxyl-terminal hydrolase 7; assay: PROTACT activity at USP7/VHL in human OCI-Ly10 cells assessed as protein degradation at 10 to 100 nM measured after 12 hrs by Western blot analysis; assay type: cell-based; conditions: dose 10-100 nM
RS4-11 [5] = assay: Antiproliferative activity against human RS4-11 cells with shp53 assessed as cell viability measured after 7 days by PMS-MTS assay; assay type: functional, cell-based; conditions: RS4-11, 168 h
REH = assay: Antiproliferative activity against human REH cells with wild type p53 assessed as cell viability measured after 3 days by PMS-MTS assay; assay type: functional, cell-based; conditions: 72 h
RS4-11 [6] = assay: Antiproliferative activity against human RS4-11 cells with wild type p53 assessed as cell viability measured after 3 days by PMS-MTS assay; assay type: functional, cell-based; conditions: RS4-11, 72 h
[7] = target: T1, von Hippel-Lindau disease tumor suppressor/Ubiquitin carboxyl-terminal hydrolase 7; assay: PROTACT activity at USP7/VHL in human RS4;11 cells assessed as protein degradation at 10 to 100 nM measured after 12 hrs by Western blot analysis; assay type: cell-based; conditions: dose 10-100 nM
[8] = target: T1, von Hippel-Lindau disease tumor suppressor/Ubiquitin carboxyl-terminal hydrolase 7; assay: PROTACT activity at USP7/VHL in human REH cells assessed as protein degradation at 10 to 100 nM measured after 12 hrs by Western blot analysis; assay type: cell-based; conditions: dose 10-100 nM
BT-549 = assay: Antiproliferative activity against human BT-549 cells assessed as cell viability measured after 6 days by Celltiter glo2.0 cell viability assay; assay type: functional, cell-based; conditions: BT-549, 144 h
MDA-MB-468 = assay: Antiproliferative activity against human MDA-MB-468 cells assessed as cell viability measured after 6 days by Celltiter glo2.0 cell viability assay; assay type: functional, cell-based; conditions: MDA-MB-468, 144 h
[9] = target: Protein cereblon/Ubiquitin carboxyl-terminal hydrolase 7 (Homo sapiens, UniProt Q93009+Q96SW2); assay: PROTACT activity at USP7/CRBN in human CAL-33 cells assessed as protein degradation measured after 72 hrs by immune blot analysis; assay type: cell-based
Sequence of Protein cereblon/Ubiquitin carboxyl-terminal hydrolase 7 (Q93009 whole entry): as the sequence (Q93009 whole entry, looked up) above
Sequence of Protein cereblon/Ubiquitin carboxyl-terminal hydrolase 7 (Q96SW2 whole entry): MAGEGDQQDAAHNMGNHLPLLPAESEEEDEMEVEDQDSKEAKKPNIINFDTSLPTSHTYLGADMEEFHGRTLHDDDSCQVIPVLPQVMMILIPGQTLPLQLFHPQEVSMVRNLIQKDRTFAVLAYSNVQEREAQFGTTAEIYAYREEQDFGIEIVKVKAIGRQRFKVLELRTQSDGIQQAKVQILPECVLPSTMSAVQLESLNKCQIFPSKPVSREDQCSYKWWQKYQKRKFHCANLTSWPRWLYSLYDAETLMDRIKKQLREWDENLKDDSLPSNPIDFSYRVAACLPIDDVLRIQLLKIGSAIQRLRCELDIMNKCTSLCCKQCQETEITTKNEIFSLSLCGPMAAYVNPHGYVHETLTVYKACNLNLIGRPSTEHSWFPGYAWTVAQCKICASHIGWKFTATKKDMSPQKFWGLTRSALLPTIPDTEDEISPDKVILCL

Row | SMILES | Activity [1] [%] | Activity [2] [%] | further results
1 | Cc1ncsc1-c1ccc([C@H](C)NC(=O)[C@@H]2C[C@@H](O)CN2C(=O)[C@@H](NC(=O)CCOCCOCCOCCOCCNCc2ccc(-c3c4ncn(CC5(O)CCN(C(=O)C[C@@H](C)c6ccccc6)CC5)c(=O)c4nn3C)cc2)C(C)(C)C)cc1 | 13 | 44.4 | 
2 | C[C@H](CC(=O)N1CCC(O)(Cn2cnc3c(-c4ccc(CNCCCCCCCCCCCNc5cccc6c5C(=O)N(C5CCC(=O)NC5=O)C6=O)cc4)n(C)nc3c2=O)CC1)c1ccccc1 (some centres not stated) |  |  | DC50 [3]: ~33 nM
3 | Cc1ncsc1-c1ccc([C@H](C)NC(=O)[C@@H]2C[C@@H](O)CN2C(=O)[C@@H](NC(=O)CCCCCNCc2ccc(-c3c4ncn(CC5(O)CCN(C(=O)C[C@@H](C)c6ccccc6)CC5)c(=O)c4nn3C)cc2)C(C)(C)C)cc1 | 38 | 56.5 | 
4 | Cc1ncsc1-c1ccc([C@H](C)NC(=O)[C@@H]2C[C@H](O)CN2C(=O)[C@@H](c2cc(N3CCN(Cc4ccc(-c5c6ncn(CC7(O)CCN(C(=O)C[C@@H](C)c8ccccc8)CC7)c(=O)c6nn5C)cc4)CC3)no2)C(C)C)cc1 |  |  | Activity [4]: inactive; IC50 (RS4-11 [5]): > 20 µM; IC50 (REH): 7.39 µM; IC50 (RS4-11 [6]): 873 nM; Activity [7]: inactive; Activity [8]: inactive
5 | Cc1ncsc1-c1ccc([C@H](C)NC(=O)[C@@H]2C[C@@H](O)CN2C(=O)[C@@H](NC(=O)CCCCCCCCCNCc2ccc(-c3c4ncn(CC5(O)CCN(C(=O)C[C@@H](C)c6ccccc6)CC5)c(=O)c4nn3C)cc2)C(C)(C)C)cc1 | 29.2 | 55.1 | 
6 | Cc1ncsc1-c1ccc([C@H](C)NC(=O)[C@@H]2C[C@@H](O)CN2C(=O)[C@@H](c2cc(N3CCC(N4CC(NCc5ccc(-c6c7ncn(CC8(O)CCN(C(=O)C[C@@H](C)c9ccccc9)CC8)c(=O)c7nn6C)cc5)C4)CC3)no2)C(C)C)cc1 | 16 | 16.9 | 
7 | O=C1CCC(N2Cc3c(CCCCCN4CCN(CCC(=O)Nc5ccc6c(=O)n(CC7(O)CCN(C(=O)C(CCCNC(=O)c8ccc9c(Cl)c%10c(nc9c8)CCCC%10)Cc8ccccc8)CC7)cnc6c5)CC4)cccc3C2=O)C(=O)N1 (configuration not stated) |  |  | IC50 (BT-549): 2800 nM; IC50 (MDA-MB-468): 1800 nM; DC50 [9]: 4.3 nM
8 | Cc1ncsc1-c1ccc([C@H](C)NC(=O)[C@@H]2C[C@@H](O)CN2C(=O)[C@@H](c2cc(N3CCC(CN4CC(NCc5ccc(-c6c7ncn(CC8(O)CCN(C(=O)C[C@@H](C)c9ccccc9)CC8)c(=O)c7nn6C)cc5)C4)CC3)no2)C(C)C)cc1 | 0.4 | 60.2 | 
9 | Cc1ncsc1-c1ccc([C@H](C)NC(=O)[C@@H]2C[C@@H](O)CN2C(=O)[C@@H](c2cc(N3CCC(CN4CC(CNCc5ccc(-c6c7ncn(CC8(O)CCN(C(=O)C[C@@H](C)c9ccccc9)CC8)c(=O)c7nn6C)cc5)C4)CC3)no2)C(C)C)cc1 | 35 | 55.1 | 
10 | Cc1ncsc1-c1ccc([C@H](C)NC(=O)[C@@H]2C[C@@H](O)CN2C(=O)[C@@H](c2cc(N3CCC(N4CC(CNCc5ccc(-c6c7ncn(CC8(O)CCN(C(=O)C[C@@H](C)c9ccccc9)CC8)c(=O)c7nn6C)cc5)C4)CC3)no2)C(C)C)cc1 | 15.5 | 25.6 | 
11 | Cc1ncsc1-c1ccc([C@H](C)NC(=O)[C@@H]2C[C@@H](O)CN2C(=O)[C@@H](c2cc(N3CCC(N4CCC(NCc5ccc(-c6c7ncn(CC8(O)CCN(C(=O)C[C@@H](C)c9ccccc9)CC8)c(=O)c7nn6C)cc5)CC4)CC3)no2)C(C)C)cc1 | 25.6 | 37.3 | 
12 | Cc1ncsc1-c1ccc([C@H](C)NC(=O)[C@@H]2C[C@@H](O)CN2C(=O)[C@@H](NC(=O)CCOCCOCCNCc2ccc(-c3c4ncn(CC5(O)CCN(C(=O)C[C@@H](C)c6ccccc6)CC5)c(=O)c4nn3C)cc2)C(C)(C)C)cc1 | 12.8 | 26.8 | 
13 | Cc1ncsc1-c1ccc([C@H](C)NC(=O)[C@@H]2C[C@@H](O)CN2C(=O)[C@@H](NC(=O)CCCCCCCNCc2ccc(-c3c4ncn(CC5(O)CCN(C(=O)C[C@@H](C)c6ccccc6)CC5)c(=O)c4nn3C)cc2)C(C)(C)C)cc1 | 46.9 | 58.1 | 
14 | Cc1ncsc1-c1ccc([C@H](C)NC(=O)[C@@H]2C[C@@H](O)CN2C(=O)[C@@H](NC(=O)CCOCCOCCOCCNCc2ccc(-c3c4ncn(CC5(O)CCN(C(=O)C[C@@H](C)c6ccccc6)CC5)c(=O)c4nn3C)cc2)C(C)(C)C)cc1 | 26.1 | 33.6 | 
15 | Cc1ncsc1-c1ccc([C@H](C)NC(=O)[C@@H]2C[C@@H](O)CN2C(=O)[C@@H](NC(=O)CCCCCCCCCCCNCc2ccc(-c3c4ncn(CC5(O)CCN(C(=O)C[C@@H](C)c6ccccc6)CC5)c(=O)c4nn3C)cc2)C(C)(C)C)cc1 | 31.9 | 75.5 | 
16 | Cc1ncsc1-c1ccc([C@H](C)NC(=O)[C@@H]2C[C@@H](O)CN2C(=O)[C@@H](NC(=O)CCCCCCCCNCc2ccc(-c3c4ncn(CC5(O)CCN(C(=O)C[C@@H](C)c6ccccc6)CC5)c(=O)c4nn3C)cc2)C(C)(C)C)cc1 | 26.1 | 39.1 | 
17 | Cc1ncsc1-c1ccc([C@H](C)NC(=O)[C@@H]2C[C@@H](O)CN2C(=O)[C@@H](NC(=O)CCCCCCCCCCNCc2ccc(-c3c4ncn(CC5(O)CCN(C(=O)C[C@@H](C)c6ccccc6)CC5)c(=O)c4nn3C)cc2)C(C)(C)C)cc1 | 30.1 | 66.7 | 
18 | Cc1ncsc1-c1ccc([C@H](C)NC(=O)[C@@H]2C[C@@H](O)CN2C(=O)[C@@H](c2cc(N3CCC(CNCc4ccc(-c5c6ncn(CC7(O)CCN(C(=O)C[C@@H](C)c8ccccc8)CC7)c(=O)c6nn5C)cc4)CC3)no2)C(C)C)cc1 | 69.5 | 91.3 | 
19 | Cc1ncsc1-c1ccc([C@H](C)NC(=O)[C@@H]2C[C@@H](O)CN2C(=O)[C@@H](c2cc(N3CCC(CN4CCC(NCc5ccc(-c6c7ncn(CC8(O)CCN(C(=O)C[C@@H](C)c9ccccc9)CC8)c(=O)c7nn6C)cc5)CC4)CC3)no2)C(C)C)cc1 | 22.2 | 37.7 | 
20 | C[C@H](CC(=O)N1CCC(O)(Cn2cnc3c(-c4ccc(CN)cc4)n(C)nc3c2=O)CC1)c1ccccc1 |  |  | IC50 (RS4-11 [5]): > 20 µM; IC50 (REH): 0.0203 µM; IC50 (RS4-11 [6]): 69 nM
21 | Cc1ncsc1-c1ccc([C@H](C)NC(=O)[C@@H]2C[C@@H](O)CN2C(=O)[C@@H](c2cc(N3CCC(CN4CCC(CNCc5ccc(-c6c7ncn(CC8(O)CCN(C(=O)C[C@@H](C)c9ccccc9)CC8)c(=O)c7nn6C)cc5)CC4)CC3)no2)C(C)C)cc1 | 50.8 | 73.5 | 
